Experimental data reported in paper PMC8484168 (Cancer Chemotherapy and Pharmacology, 2021).
Read-outs that look alike come from different tables or passages of the source.

Legend:
[1] = Plasma PK of rosuvastatin and oral contraceptives with and without rucaparib (phase 1 DDI study, noncompartmental analysis); assay type: in vivo, human; conditions: for detected in human plasma up to (postdose): 30 µg dose, LC–MS/MS; for AUC(0-inf) / AUC(0-t) / Cmax / half-life / Vd/F / Tmax: human; for AUC(0-inf) / AUC(0-t) / Cmax / half-life / Vd/F: po; for Tmax: read-out: tmax, Median (range); for change of median tmax with rucaparib: with vs without rucaparib
Excerpt: This was a 2-part, phase 1, open-label, 2-arm DDI study in patients with advanced solid tumors. In Part 1 of the study, patients were screened for eligibility from day − 28 to − 2 and visited the study site from day − 1 to 23 (Fig. 1). […] To check steady-state plasma concentrations for rucaparib, a blood sample was collected prior to the dosing of rucaparib on days 5, 9, 11, 15, and 19–23.
Other PK parameters, calculated for the probe drugs, included half-life (t1/2), tmax, apparent total clearance of drug after oral administration (CL/F), and apparent volume of distribution during terminal phase (VZ/F). The PK parameter calculated for rucaparib at steady state was trough plasma concentration (Cmin). PK parameters were calculated by noncompartmental analysis using Phoenix WinNonlin, version 8.1 (Certara, Princeton, NJ).
Details are provided in Online Resource 1.
The LC consisted of a Gemini NX C18 column (2 x 50 mm, 3 μm, Phenomenex, Torrance, CA) and was eluted with a gradient consisting of 0.1% acetic acid in water as mobile phase A and with 100% acetonitrile as mobile phase B at an initial flow rate of 0.5 mL/min at room temperature. The MS/MS consisted of an AB SCIEX API5000 system and was operated with Analyst version 1.6.2 in TurboIonSpray and positive ionization mode. […] The concentration range for quantitation was 0.1–100 ng/mL.
Separation between potential metabolites and interfering endogenous compounds was achieved by ultra-high performance liquid chromatography with a CSH C18 column at 40°C and gradient elution using 0.1% formic acid in water as mobile phase A and acetonitrile as mobile phase B, operating at an initial flow rate of 0.800 mL/min. A triple quadrupole mass spectrometer (Triple Quad 6500) equipped with a turbo ion spray source was used for detection in positive ion mode.

[2] = DDI analysis: geometric mean ratio of probe drug PK with versus without rucaparib; assay type: in vivo, human; conditions: Arm B; steady-state rucaparib
Excerpt: The DDI analysis population included patients who completed the DDI assessment per protocol and had sufficient PK data to calculate Cmax and AUC of the probe drug with and without rucaparib. […] With the assumption that intrapatient PK variability would be 35% for the probe drugs, a total enrollment of 32 patients was planned for this study: 16 for Arm A and 16 for Arm B. […] The primary PK parameters were natural log-transformed before assessment with a paired t test.

[3] = plasma, 600 mg, with rucaparib 600 mg BID (day 19), single oral dose, plasma, read-out: AUC0–inf, GM (%CV)
[4] = plasma, 600 mg, with rucaparib 600 mg BID (day 19), single oral dose, plasma, read-out: AUC0–inf, Mean (SD)
[5] = plasma, 600 mg, with rucaparib 600 mg BID (day 19), single oral dose, plasma, read-out: AUC0–inf, Median (range)
[6] = plasma, 600 mg, with rucaparib 600 mg BID (day 19), single oral dose, plasma, read-out: AUC0–last, GM (%CV)
[7] = plasma, 600 mg, with rucaparib 600 mg BID (day 19), single oral dose, plasma, read-out: AUC0–last, Mean (SD)
[8] = plasma, 600 mg, with rucaparib 600 mg BID (day 19), single oral dose, plasma, read-out: AUC0–last, Median (range)
[9] = plasma, 600 mg, with rucaparib 600 mg BID (day 19), single oral dose, plasma, read-out: Cmax, GM (%CV)
[10] = plasma, 600 mg, with rucaparib 600 mg BID (day 19), single oral dose, plasma, read-out: Cmax, Median (range)
[11] = plasma, 600 mg, with rucaparib 600 mg BID (day 19), single oral dose, plasma, read-out: t1/2, GM (%CV) (converted)
[12] = plasma, 600 mg, with rucaparib 600 mg BID (day 19), single oral dose, plasma, read-out: t1/2, Mean (SD) (converted)
[13] = plasma, 600 mg, with rucaparib 600 mg BID (day 19), single oral dose, plasma, read-out: t1/2, Median (range) (converted)
[14] = plasma, 600 mg, with rucaparib 600 mg BID (day 19), single oral dose, read-out: VZ/F, GM (%CV)
[15] = plasma, 600 mg, with rucaparib 600 mg BID (day 19), single oral dose, read-out: VZ/F, Mean (SD)
[16] = plasma, 600 mg, with rucaparib 600 mg BID (day 19), single oral dose, read-out: VZ/F, Median (range)
[17] = plasma, without rucaparib (day 1), single oral dose, plasma, PK analysis population, read-out: Cmax, Mean (SD)
[18] = plasma, without rucaparib (day 1), single oral dose, plasma, read-out: AUC0–inf, GM (%CV)
[19] = plasma, without rucaparib (day 1), single oral dose, plasma, read-out: AUC0–inf, Mean (SD)
[20] = plasma, without rucaparib (day 1), single oral dose, plasma, read-out: AUC0–inf, Median (range)
[21] = plasma, without rucaparib (day 1), single oral dose, plasma, read-out: AUC0–last, Mean (SD)
[22] = plasma, without rucaparib (day 1), single oral dose, plasma, read-out: AUC0–last, Median (range)
[23] = plasma, without rucaparib (day 1), single oral dose, plasma, read-out: Cmax, GM (%CV)
[24] = plasma, without rucaparib (day 1), single oral dose, plasma, read-out: Cmax, Median (range)
[25] = plasma, without rucaparib (day 1), single oral dose, plasma, read-out: t1/2, GM (%CV) (converted)
[26] = plasma, without rucaparib (day 1), single oral dose, plasma, read-out: t1/2, Mean (SD) (converted)
[27] = plasma, without rucaparib (day 1), single oral dose, plasma, read-out: t1/2, Median (range) (converted)
[28] = plasma, without rucaparib (day 1), single oral dose, read-out: VZ/F, GM (%CV)
[29] = plasma, without rucaparib (day 1), single oral dose, read-out: VZ/F, Mean (SD)
[30] = plasma, without rucaparib (day 1), single oral dose, read-out: VZ/F, Median (range)
[31] = without rucaparib (day 1), single oral dose, plasma
[32] = with rucaparib 600 mg BID (day 19), single oral dose
[33] = without rucaparib (day 1), single oral dose

## C#C[C@]1(O)CC[C@H]2[C@@H]3CCc4cc(O)ccc4[C@H]3CC[C@@]21C [ethinylestradiol]
[1]; with rucaparib
  detected in human plasma up to (postdose): ≤ 72 h
[1]; without rucaparib
  detected in human plasma up to (postdose): up to 48 h
[1]; [3]
  AUC(0-inf): 1.41 ng·h/mL
[1]; [4]
  AUC(0-inf): 1.49 ng·h/mL
[1]; [5]
  AUC(0-inf): 1.37 ng·h/mL
[1]; [6]
  AUC(0-t): 1.15 ng·h/mL
[1]; [7]
  AUC(0-t): 1.24 ng·h/mL
[1]; [8]
  AUC(0-t): 1.18 ng·h/mL
[1]; [9]
  Cmax: 0.0784 ng/mL
[1]; [10]
  Cmax: 0.0756 ng/mL
[1]; [11]
  half-life: 24.8 h
[1]; [12]
  half-life: 30 h
[1]; [13]
  half-life: 27.1 h
[1]; [14]
  Vd/F: 653 L
[1]; [15]
  Vd/F: 684 L
[1]; [16]
  Vd/F: 620 L
[1]; [17]
  Cmax: 0.0792 ng/mL
[1]; [18]
  AUC(0-inf): 0.962 ng·h/mL
[1]; [19]
  AUC(0-inf): 0.994 ng·h/mL
[1]; [20]
  AUC(0-inf): 1 ng·h/mL
[1]; [21]
  AUC(0-t): 0.804 ng·h/mL
[1]; [22]
  AUC(0-t): 0.775 ng·h/mL
[1]; [23]
  Cmax: 0.0732 ng/mL
[1]; [24]
  Cmax: 0.0734 ng/mL
[1]; [25]
  half-life: 15.9 h
[1]; [26]
  half-life: 17 h
[1]; [27]
  half-life: 18.1 h
[1]; [28]
  Vd/F: 772 L
[1]; [29]
  Vd/F: 792 L
[1]; [30]
  Vd/F: 772 L
[1]; [31]
  Tmax: 1 h
[1]; with rucaparib 600 mg BID (day 19), single oral dose, plasma, PK analysis population
  Cmax, Mean (SD): 0.0893 (0.0443) ng/mL
[1]
  change of median tmax with rucaparib: 0.5 h
[2]
  AUC increase with rucaparib: approximately 1.4 fold
  Cmax increase with rucaparib: < 1.25 fold

## C#C[C@]1(O)CC[C@H]2[C@@H]3CCC4=CC(=O)CC[C@@H]4[C@H]3CC[C@@]21CC [levonorgestrel]
[1]; plasma, 600 mg, with rucaparib 600 mg BID (day 19), single oral dose, plasma, PK analysis population, read-out: Cmax, Mean (SD)
  Cmax: 3.77 ng/mL
[1]; [3]
  AUC(0-inf): 102 ng·h/mL
[1]; [4]
  AUC(0-inf): 109 ng·h/mL
[1]; [5]
  AUC(0-inf): 87.3 ng·h/mL
[1]; [6]
  AUC(0-t): 77.5 ng·h/mL
[1]; [7]
  AUC(0-t): 86 ng·h/mL
[1]; [8]
  AUC(0-t): 80.4 ng·h/mL
[1]; [9]
  Cmax: 3.43 ng/mL
[1]; [10]
  Cmax: 3.48 ng/mL
[1]; [11]
  half-life: 46.6 h
[1]; [12]
  half-life: 50 h
[1]; [13]
  half-life: 43.6 h
[1]; [14]
  Vd/F: 77.6 L
[1]; [15]
  Vd/F: 82.8 L
[1]; [16]
  Vd/F: 85.6 L
[1]; [17]
  Cmax: 3.32 ng/mL
[1]; [18]
  AUC(0-inf): 64 ng·h/mL
[1]; [19]
  AUC(0-inf): 72.7 ng·h/mL
[1]; [20]
  AUC(0-inf): 55.4 ng·h/mL
[1]; plasma, without rucaparib (day 1), single oral dose, plasma, read-out: AUC0–last, GM (%CV)
  AUC(0-t): 52.9 ng·h/mL
[1]; [21]
  AUC(0-t): 59.7 ng·h/mL
[1]; [22]
  AUC(0-t): 45.3 ng·h/mL
[1]; [23]
  Cmax: 3.17 ng/mL
[1]; [24]
  Cmax: 3.29 ng/mL
[1]; [25]
  half-life: 38.5 h
[1]; [26]
  half-life: 41.1 h
[1]; [27]
  half-life: 37.1 h
[1]; [28]
  Vd/F: 103 L
[1]; [29]
  Vd/F: 113 L
[1]; [30]
  Vd/F: 114 L
[1]; with rucaparib 600 mg BID (day 19), single oral dose, plasma
  Tmax: 1.5 h
[1]; [31]
  Tmax: 1.51 h
[1]; [32]
  CL/F, Mean (SD): 1.57 (0.531) L/h
  CL/F, Median (range): 1.72 (0.701–2.39) L/h
[1]
  change of median tmax with rucaparib: remained the same
[1]; [33]
  CL/F, Mean (SD): 2.57 (1.01) L/h
  CL/F, Median (range): 2.71 (0.891–3.84) L/h
[2]
  AUC increase with rucaparib: ~1.6 fold
  Cmax increase with rucaparib: < 1.25 fold
